Data published in publication PMC10174618, “Monoterpenoid aryl hydrocarbon receptor allosteric antagonists protect against ultraviolet skin damage in female mice” (Nature Communications, 2023).

Key:
[1] = biological target: T1, Tyrosine kinase 2 TK2 (JH2 domain pseudokinase) (Homo sapiens, UniProt P29597); test: KINOMEscan competition binding, single concentration […]; conditions: read-out: % of control at 100 μM
T1 construct: gene TYK2; JH2 domain pseudokinase

PCTK2 = biological target: T2, PCTK2 (Homo sapiens, UniProt Q00537); test: biochemical; parameters: KINOMEscan scanMAX active site-directed competition binding assay, percent of control, 468 kinases; conditions: competition binding, percent of control
T2 construct: gene CDK17
T2 sequence (Q00537 whole entry): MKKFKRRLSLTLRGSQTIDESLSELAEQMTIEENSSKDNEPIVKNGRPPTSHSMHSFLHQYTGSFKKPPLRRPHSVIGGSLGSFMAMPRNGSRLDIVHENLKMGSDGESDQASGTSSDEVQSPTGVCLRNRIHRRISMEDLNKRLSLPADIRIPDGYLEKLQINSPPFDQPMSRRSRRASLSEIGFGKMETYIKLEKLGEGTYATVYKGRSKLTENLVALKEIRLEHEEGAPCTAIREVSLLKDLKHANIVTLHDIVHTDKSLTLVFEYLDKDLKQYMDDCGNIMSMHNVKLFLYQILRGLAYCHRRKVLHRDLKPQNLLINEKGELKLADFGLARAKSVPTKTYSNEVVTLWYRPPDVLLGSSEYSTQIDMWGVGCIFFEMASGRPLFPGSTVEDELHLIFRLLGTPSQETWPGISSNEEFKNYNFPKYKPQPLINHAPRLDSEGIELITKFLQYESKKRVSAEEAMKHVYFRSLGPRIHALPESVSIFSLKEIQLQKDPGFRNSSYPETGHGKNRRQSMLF
In short: (§1)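 KINOMEscan active site-directed competition binding assay against 468 human kinases with 100 μM S-carvone. Binding expressed as % of control, with 35% of control as the inhibition threshold.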

p38-alpha = biological target: T3, p38-alpha (Homo sapiens, UniProt Q16539); test: biochemical; parameters: KINOMEscan scanMAX active site-directed competition binding assay, percent of control, 468 kinases; conditions: competition binding, percent of control
T3 construct: gene MAPK14
In short: as §1

FGFR1 = FGFR1 (Homo sapiens, UniProt P11362); test: biochemical; parameters: KINOMEscan scanMAX active site-directed competition binding assay, percent of control, 468 kinases; conditions: competition binding, percent of control
In short: as §1

[2] = biological target: T4, RPS6KA4(Kin.Dom.1-N-terminal) (Homo sapiens, UniProt O75676); test: biochemical; parameters: KINOMEscan scanMAX active site-directed competition binding assay, percent of control, 468 kinases; conditions: competition binding, percent of control
T4 construct: Kin.Dom.1-N-terminal
T4 sequence (O75676 whole entry): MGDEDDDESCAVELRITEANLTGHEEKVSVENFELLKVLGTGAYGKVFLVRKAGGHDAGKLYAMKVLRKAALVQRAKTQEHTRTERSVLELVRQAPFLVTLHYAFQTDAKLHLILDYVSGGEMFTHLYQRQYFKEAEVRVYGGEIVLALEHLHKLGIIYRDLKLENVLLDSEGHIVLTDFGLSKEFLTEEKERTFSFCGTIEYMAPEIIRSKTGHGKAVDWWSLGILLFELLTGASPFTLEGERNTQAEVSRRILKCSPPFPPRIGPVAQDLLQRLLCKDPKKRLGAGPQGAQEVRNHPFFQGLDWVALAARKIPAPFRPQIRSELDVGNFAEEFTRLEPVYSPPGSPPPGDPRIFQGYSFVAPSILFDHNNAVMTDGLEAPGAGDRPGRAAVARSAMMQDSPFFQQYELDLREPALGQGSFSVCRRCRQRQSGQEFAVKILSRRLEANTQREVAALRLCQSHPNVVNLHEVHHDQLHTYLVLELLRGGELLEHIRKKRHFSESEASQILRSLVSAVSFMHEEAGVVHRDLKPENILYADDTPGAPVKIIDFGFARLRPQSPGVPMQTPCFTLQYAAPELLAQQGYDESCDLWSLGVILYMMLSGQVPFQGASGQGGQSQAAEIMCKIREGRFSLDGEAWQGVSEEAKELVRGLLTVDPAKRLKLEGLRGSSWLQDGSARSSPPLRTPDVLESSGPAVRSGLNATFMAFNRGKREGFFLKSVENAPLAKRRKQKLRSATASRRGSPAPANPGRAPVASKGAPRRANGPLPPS
In short: as §1

MAP3K15 = MAP3K15 (Homo sapiens, UniProt Q6ZN16); test: biochemical; parameters: KINOMEscan scanMAX active site-directed competition binding assay, percent of control, 468 kinases; conditions: competition binding, percent of control
Chain of MAP3K15 (Q6ZN16 whole entry): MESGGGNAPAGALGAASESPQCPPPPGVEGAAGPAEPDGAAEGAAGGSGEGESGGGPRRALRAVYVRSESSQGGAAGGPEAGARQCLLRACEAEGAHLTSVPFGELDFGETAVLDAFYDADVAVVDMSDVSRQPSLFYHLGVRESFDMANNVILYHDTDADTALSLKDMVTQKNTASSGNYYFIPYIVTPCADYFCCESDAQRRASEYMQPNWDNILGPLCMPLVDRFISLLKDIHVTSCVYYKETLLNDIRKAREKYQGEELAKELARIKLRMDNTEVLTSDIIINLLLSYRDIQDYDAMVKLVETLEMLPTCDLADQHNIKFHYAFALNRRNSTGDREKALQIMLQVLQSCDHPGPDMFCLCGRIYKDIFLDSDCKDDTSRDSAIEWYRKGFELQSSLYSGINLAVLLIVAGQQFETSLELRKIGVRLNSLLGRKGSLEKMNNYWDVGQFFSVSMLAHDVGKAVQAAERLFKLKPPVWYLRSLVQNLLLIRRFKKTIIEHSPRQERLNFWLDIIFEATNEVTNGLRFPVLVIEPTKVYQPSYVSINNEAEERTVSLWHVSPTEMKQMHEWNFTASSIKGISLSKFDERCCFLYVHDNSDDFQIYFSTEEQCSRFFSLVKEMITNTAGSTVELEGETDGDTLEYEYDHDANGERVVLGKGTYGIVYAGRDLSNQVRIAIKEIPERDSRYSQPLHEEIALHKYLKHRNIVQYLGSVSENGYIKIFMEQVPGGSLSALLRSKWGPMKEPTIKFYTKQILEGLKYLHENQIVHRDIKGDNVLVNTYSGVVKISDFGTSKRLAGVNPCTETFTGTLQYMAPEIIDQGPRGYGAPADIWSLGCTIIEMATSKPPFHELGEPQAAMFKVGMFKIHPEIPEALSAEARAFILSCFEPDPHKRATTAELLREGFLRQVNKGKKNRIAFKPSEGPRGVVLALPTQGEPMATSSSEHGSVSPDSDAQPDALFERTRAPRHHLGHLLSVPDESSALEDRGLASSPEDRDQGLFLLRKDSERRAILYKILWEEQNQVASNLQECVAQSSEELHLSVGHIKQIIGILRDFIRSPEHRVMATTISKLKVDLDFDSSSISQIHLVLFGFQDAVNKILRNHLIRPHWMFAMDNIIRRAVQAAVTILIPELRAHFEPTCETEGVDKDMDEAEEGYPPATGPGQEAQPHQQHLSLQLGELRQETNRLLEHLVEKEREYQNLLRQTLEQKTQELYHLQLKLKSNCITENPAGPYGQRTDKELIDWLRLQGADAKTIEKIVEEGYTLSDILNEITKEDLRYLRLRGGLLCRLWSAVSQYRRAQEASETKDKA
In short: as §1

FGFR4 = FGFR4 (Homo sapiens, UniProt P22455); test: biochemical; parameters: KINOMEscan scanMAX active site-directed competition binding assay, percent of control, 468 kinases; conditions: competition binding, percent of control
Chain of FGFR4 (P22455 whole entry): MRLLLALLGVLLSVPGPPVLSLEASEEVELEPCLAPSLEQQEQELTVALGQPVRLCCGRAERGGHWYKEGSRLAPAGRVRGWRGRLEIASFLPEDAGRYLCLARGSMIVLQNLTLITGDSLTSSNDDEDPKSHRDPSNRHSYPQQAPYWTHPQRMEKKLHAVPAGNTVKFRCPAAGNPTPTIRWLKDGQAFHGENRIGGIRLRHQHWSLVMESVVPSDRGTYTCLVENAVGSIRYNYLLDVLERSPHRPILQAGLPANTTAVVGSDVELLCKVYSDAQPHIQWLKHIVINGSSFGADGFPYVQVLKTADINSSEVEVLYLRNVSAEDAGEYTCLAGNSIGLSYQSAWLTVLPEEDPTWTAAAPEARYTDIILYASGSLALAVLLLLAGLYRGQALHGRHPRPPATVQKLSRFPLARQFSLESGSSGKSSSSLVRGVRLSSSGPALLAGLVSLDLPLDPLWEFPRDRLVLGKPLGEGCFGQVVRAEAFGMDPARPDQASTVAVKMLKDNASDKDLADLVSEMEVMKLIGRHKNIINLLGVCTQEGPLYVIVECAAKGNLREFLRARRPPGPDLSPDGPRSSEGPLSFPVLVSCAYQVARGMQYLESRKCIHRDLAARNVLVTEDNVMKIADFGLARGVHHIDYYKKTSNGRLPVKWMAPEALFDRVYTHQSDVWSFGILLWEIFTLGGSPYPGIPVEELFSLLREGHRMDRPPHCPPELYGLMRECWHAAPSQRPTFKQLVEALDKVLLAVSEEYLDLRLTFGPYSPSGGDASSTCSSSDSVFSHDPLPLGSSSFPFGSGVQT
In short: as §1

GRK1 = GRK1 (Homo sapiens, UniProt Q15835); test: biochemical; parameters: KINOMEscan scanMAX active site-directed competition binding assay, percent of control, 468 kinases; conditions: competition binding, percent of control
In short: as §1

PLK1 = PLK1 (Homo sapiens, UniProt P53350); test: biochemical; parameters: KINOMEscan scanMAX active site-directed competition binding assay, percent of control, 468 kinases; conditions: competition binding, percent of control
In short: as §1

PIK3CD = PIK3CD (Homo sapiens, UniProt O00329); test: biochemical; parameters: KINOMEscan scanMAX active site-directed competition binding assay, percent of control, 468 kinases; conditions: competition binding, percent of control
In short: as §1

MYO3B = MYO3B (Homo sapiens, UniProt Q8WXR4); test: biochemical; parameters: KINOMEscan scanMAX active site-directed competition binding assay, percent of control, 468 kinases; conditions: competition binding, percent of control
In short: as §1

PAK2 = PAK2 (Homo sapiens, UniProt Q13177); test: biochemical; parameters: KINOMEscan scanMAX active site-directed competition binding assay, percent of control, 468 kinases; conditions: competition binding, percent of control
Chain of PAK2 (Q13177 whole entry): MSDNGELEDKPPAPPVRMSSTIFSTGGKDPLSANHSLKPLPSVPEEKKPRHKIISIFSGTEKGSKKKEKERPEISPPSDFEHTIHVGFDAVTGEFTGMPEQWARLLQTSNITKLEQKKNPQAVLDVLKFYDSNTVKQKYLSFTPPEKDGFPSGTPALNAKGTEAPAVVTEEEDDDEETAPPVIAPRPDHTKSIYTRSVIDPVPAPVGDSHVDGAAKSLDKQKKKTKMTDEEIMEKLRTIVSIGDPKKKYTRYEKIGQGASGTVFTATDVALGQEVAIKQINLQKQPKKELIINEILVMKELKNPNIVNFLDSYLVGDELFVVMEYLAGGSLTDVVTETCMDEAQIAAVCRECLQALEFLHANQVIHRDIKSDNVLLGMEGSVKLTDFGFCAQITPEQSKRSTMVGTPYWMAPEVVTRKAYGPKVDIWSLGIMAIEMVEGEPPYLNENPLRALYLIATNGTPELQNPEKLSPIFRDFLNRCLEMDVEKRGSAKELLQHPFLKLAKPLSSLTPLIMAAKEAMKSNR
In short: as §1

AKT2 = AKT2 (Homo sapiens, UniProt P31751); test: biochemical; parameters: KINOMEscan scanMAX active site-directed competition binding assay, percent of control, 468 kinases; conditions: competition binding, percent of control
Chain of AKT2 (P31751 whole entry): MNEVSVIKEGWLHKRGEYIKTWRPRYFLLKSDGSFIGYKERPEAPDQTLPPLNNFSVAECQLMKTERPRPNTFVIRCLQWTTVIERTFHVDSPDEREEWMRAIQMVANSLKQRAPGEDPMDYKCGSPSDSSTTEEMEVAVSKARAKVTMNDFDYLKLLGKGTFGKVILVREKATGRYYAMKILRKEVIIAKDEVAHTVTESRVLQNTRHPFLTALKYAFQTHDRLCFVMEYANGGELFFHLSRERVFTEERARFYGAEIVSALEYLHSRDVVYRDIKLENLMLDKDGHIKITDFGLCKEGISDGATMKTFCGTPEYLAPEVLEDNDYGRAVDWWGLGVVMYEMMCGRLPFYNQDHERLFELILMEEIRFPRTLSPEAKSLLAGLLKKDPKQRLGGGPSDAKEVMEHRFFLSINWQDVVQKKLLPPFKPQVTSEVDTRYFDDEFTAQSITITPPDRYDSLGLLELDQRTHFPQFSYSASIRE
In short: as §1

T1 sequence (P29597 589-875 limits assumed): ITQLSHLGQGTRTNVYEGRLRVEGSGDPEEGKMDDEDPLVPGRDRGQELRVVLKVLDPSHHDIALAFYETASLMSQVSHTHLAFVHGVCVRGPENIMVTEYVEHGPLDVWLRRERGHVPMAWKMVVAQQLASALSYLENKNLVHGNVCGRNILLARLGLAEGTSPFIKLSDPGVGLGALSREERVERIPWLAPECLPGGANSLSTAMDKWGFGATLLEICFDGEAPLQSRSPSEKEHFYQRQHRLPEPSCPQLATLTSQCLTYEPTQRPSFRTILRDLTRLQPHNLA

remaining binding at 100 µM [1]: 27% | remaining binding at 100 µM (PCTK2): 97% | remaining binding at 100 µM (p38-alpha): 100% | remaining binding at 100 µM (FGFR1): 92% | remaining binding at 100 µM [2]: 87% | remaining binding at 100 µM (MAP3K15): 93% | remaining binding at 100 µM (FGFR4): 92% | remaining binding at 100 µM (GRK1): 74% | remaining binding at 100 µM (PLK1): 68% | remaining binding at 100 µM (PIK3CD): 87% | remaining binding at 100 µM (MYO3B): 94% | remaining binding at 100 µM (PAK2): 98% | remaining binding at 100 µM (AKT2): 86%
SMILES: C=C(C)[C@H]1CC=C(C)C(=O)C1 [S-carvone]
